The results in this text go back to ChEMBL document CHEMBL1135692, “Structure-activity relationships of the melanocortin tetrapeptide Ac-His-D-Phe-Arg-Trp-NH2 at the mouse melanocortin receptors. 4. Modifications at the Trp position” (J Med Chem, 2002).

What all share (assay type): cell-based
Experiment [1] deals with Melanocortin receptor 3 (Mus musculus, UniProt P33033). The experiment can be described thus: Activity in mouse melanocortin-3 receptor (mMC3R) stably expressed in HEK293 cells.
The target in experiment [2] is Melanocyte-stimulating hormone receptor (Mus musculus, UniProt Q01727). The experiment can be described thus: Activity in mouse melanocortin-1 receptor stably expressed in HEK293 cells.
Melanocyte-stimulating hormone receptor, sequence (Q01727 whole entry): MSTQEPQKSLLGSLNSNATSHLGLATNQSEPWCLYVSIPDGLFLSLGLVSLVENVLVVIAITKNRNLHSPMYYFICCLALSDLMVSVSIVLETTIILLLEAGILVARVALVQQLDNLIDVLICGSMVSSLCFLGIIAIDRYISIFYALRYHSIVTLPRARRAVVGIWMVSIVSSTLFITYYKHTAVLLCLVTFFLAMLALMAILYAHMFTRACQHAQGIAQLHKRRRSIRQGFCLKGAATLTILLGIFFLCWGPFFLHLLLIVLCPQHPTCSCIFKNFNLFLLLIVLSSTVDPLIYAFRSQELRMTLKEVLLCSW
Experiment [3] deals with Melanocortin receptor 5 (Mus musculus, UniProt P41149). The experiment can be described thus: Activity in mouse melanocortin-5 receptor stably expressed in HEK293 cells.
Melanocortin receptor 5, sequence (P41149 whole entry): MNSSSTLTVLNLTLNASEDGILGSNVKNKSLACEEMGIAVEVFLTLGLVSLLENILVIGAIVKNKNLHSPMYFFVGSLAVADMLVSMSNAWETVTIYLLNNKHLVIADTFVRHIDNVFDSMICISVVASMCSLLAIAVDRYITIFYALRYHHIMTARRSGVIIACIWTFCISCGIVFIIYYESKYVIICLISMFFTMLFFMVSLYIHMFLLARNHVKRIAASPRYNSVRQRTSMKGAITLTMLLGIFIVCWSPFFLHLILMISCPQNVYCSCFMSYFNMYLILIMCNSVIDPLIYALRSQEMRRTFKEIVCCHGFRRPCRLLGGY
Experiment [4] concerns the target Melanocortin receptor 4 (Mus musculus, UniProt P56450). Put plainly: Activity in mouse melanocortin-4 receptor stably expressed in HEK293 cells.

Melanocortin receptor 4, sequence (P56450 whole entry): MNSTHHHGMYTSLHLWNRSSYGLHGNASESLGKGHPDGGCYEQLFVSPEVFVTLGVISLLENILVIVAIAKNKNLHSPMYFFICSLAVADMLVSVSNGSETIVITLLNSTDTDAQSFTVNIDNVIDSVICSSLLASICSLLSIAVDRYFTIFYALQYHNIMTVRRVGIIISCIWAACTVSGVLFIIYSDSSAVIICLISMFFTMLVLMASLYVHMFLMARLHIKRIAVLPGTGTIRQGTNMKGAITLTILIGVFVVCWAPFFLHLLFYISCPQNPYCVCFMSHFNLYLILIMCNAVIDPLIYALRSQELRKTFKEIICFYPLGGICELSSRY
Melanocortin receptor 3, sequence (P33033 whole entry): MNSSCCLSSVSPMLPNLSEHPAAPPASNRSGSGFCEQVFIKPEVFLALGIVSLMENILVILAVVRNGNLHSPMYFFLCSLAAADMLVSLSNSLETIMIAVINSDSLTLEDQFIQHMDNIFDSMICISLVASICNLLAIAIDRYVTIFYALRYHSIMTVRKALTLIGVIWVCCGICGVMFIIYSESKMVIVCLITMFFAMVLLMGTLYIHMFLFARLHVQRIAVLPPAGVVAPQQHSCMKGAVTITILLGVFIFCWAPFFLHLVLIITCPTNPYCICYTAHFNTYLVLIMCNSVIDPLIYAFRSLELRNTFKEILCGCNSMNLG

With `CC(=O)N[C@@H](Cc1c[nH]cn1)C(=O)N[C@H](Cc1ccccc1)C(=O)N[C@@H](CCCN=C(N)N)C(=O)N[C@@]1(C(N)=O)CCc2ccccc2C1` (stereo in doubt; 20), the concentration giving a half-maximal response (EC50) in experiment [1] came to 9.9 µM; in experiment [2] it was 700 nM; in experiment [3], 180 nM; in experiment [4], 3.46 µM.
Regarding `CC(=O)N[C@@H](Cc1cnc[nH]1)C(=O)NC(Cc1ccccc1)C(=O)N[C@@H](CCCNC(=N)N)C(=O)N[C@H](Cc1cnc[nH]1)C(N)=O` (stereo in doubt) [listing 1 of 2 here], the EC50 worked out at 3800 nM in experiment [2], 36000 nM in experiment [3] and 27.6 µM in experiment [4].
The like results for `CC(=O)N[C@@H](Cc1c[nH]cn1)C(=O)N[C@H](Cc1ccccc1)C(=O)N[C@@H](CCCN=C(N)N)C(=O)N[C@H](C(N)=O)C(c1ccccc1)c1ccccc1` were, in that order, 2300 nM, 7100 nM and 11.6 µM.
The like results for `CC(=O)N[C@@H](Cc1c[nH]cn1)C(=O)NC(Cc1ccccc1)C(=O)N[C@@H](CCCN=C(N)N)C(=O)NC(Cc1ccc2ccccc2c1)C(N)=O` (stereo in doubt) [listing 1 of 2 here] were, in that order, 127 nM, 12.1 nM and 0.0462 µM.
Take `CC(=O)N[C@@H](Cc1c[nH]cn1)C(=O)NC(Cc1ccccc1)C(=O)N[C@@H](CCCN=C(N)N)C(=O)NC(Cc1ccc2ccccc2c1)C(N)=O` (stereo in doubt) [listing 2 of 2 here]: the response in experiment [1] was half-maximal at 1.62 µM (EC50).
Regarding `CC(=O)N[C@@H](Cc1cnc[nH]1)C(=O)NC(Cc1ccccc1)C(=O)N[C@@H](CCCNC(=N)N)C(=O)N[C@H](Cc1cccc2ccccc12)C(N)=O` (stereo in doubt) [listing 1 of 2 here], the results for the EC50 in experiment [2], in experiment [3] and in experiment [4] were 730 nM, 33.1 nM and 0.26 µM, respectively.
Take `CC(=O)N[C@@H](Cc1cnc[nH]1)C(=O)NC(Cc1ccccc1)C(=O)N[C@@H](CCCNC(=N)N)C(=O)N[C@H](Cc1csc2ccccc12)C(N)=O` (stereo in doubt) [listing 1 of 2 here]: the response in experiment [1] was half-maximal at 3.7 µM (EC50).
On the same count and under the same terms, in the case of `CC(=O)N[C@@H](Cc1c[nH]cn1)C(=O)N[C@@H](Cc1ccccc1)C(=O)N[C@@H](CCCN=C(N)N)C(=O)N[C@@H](C(N)=O)C(c1ccccc1)c1ccccc1` it was 53.3 µM.
On the same count and under the same terms, in the case of `CC(=O)N[C@@H](Cc1c[nH]cn1)C(=O)NC(Cc1ccccc1)C(=O)N[C@@H](CCCN=C(N)N)C(=O)NC(Cc1ccccc1)C(N)=O` (stereo in doubt) [listing 1 of 2 here] it was 15 µM; in that of `CC(=O)N[C@@H](Cc1cnc[nH]1)C(=O)NC(Cc1ccccc1)C(=O)N[C@@H](CCCNC(=N)N)C(=O)N[C@H](Cc1cccs1)C(N)=O` (stereo in doubt) [listing 1 of 2 here], 30.2 µM.
As for `CC(=O)N[C@@H](Cc1cnc[nH]1)C(=O)NC(Cc1ccccc1)C(=O)N[C@@H](CCCNC(=N)N)C(=O)N[C@@H](Cc1ccc(-c2ccccc2)cc1)C(N)=O` (stereo in doubt) [listing 1 of 2 here], the values for the concentration for a half-maximal effect (EC50) in experiment [2], in experiment [3] and in experiment [4] were 310 nM, 150 nM and 1.5 µM, respectively.
On to `CC(=O)N[C@@H](Cc1cnc[nH]1)C(=O)NC(Cc1ccccc1)C(=O)N[C@@H](CCCNC(=N)N)C(=O)N[C@@H](Cc1ccc(-c2ccccc2)cc1)C(N)=O` (stereo in doubt) [listing 2 of 2 here], for which it took 16.2 µM to reach a half-maximal effect in experiment [1] (EC50). This counts as double-digit micromolar.
In the case of `CC(=O)N[C@@H](Cc1cnc[nH]1)C(=O)N[C@H](Cc1ccccc1)C(=O)N[C@@H](CCCN=C(N)N)C(=O)N1Cc2ccccc2C[C@@H]1C(N)=O`, the EC50 in experiment [1] was greater than 100 µM; in experiment [2] it was 1500 nM; in experiment [3], 24800 nM; in experiment [4] it was 39.4 µM.
The compound `CC(=O)N[C@@H](Cc1c[nH]cn1)C(=O)NC(Cc1ccccc1)C(=O)N[C@@H](CCCN=C(N)N)C(=O)N[C@H](Cc1ccc2ccccc2c1)C(N)=O` (stereo in doubt) [listing 1 of 2 here] showed an EC50 in experiment [1] of 0.74 µM.
The same measure, in the same setting: in the case of `CC(=O)N[C@@H](Cc1cnc[nH]1)C(=O)NC(Cc1ccccc1)C(=O)N[C@@H](CCCNC(=N)N)C(=O)N[C@H](Cc1cccc2ccccc12)C(N)=O` (stereo in doubt) [listing 2 of 2 here] it was 3.5 µM.
On the same count and under the same terms, in the case of `CC(=O)N[C@@H](Cc1cnc[nH]1)C(=O)NC(Cc1ccccc1)C(=O)N[C@@H](CCCNC(=N)N)C(=O)N[C@H](Cc1cnc[nH]1)C(N)=O` (stereo in doubt) [listing 2 of 2 here] it was greater than 100 µM; in that of `CC(=O)N[C@@H](Cc1cnc[nH]1)C(=O)NC(Cc1ccccc1)C(=O)N[C@@H](CCCNC(=N)N)C(=O)N[C@@H](Cc1cccc2ccccc12)C(N)=O` (stereo in doubt) [listing 1 of 2 here], 21.9 µM.
For `CC(=O)N[C@@H](Cc1c[nH]cn1)C(=O)N[C@H](Cc1ccccc1)C(=O)N[C@@H](CCCN=C(N)N)C(=O)N[C@@H](Cc1ccccc1)C(N)=O`, the EC50 in experiment [2] amounted to 530 nM; in experiment [3], 890 nM; in experiment [4] it was 7.8 µM.
The like results for `CC(=O)N[C@@H](Cc1cnc[nH]1)C(=O)NC(Cc1ccccc1)C(=O)N[C@@H](CCCNC(=N)N)C(=O)N[C@@H](Cc1cccc2ccccc12)C(N)=O` (stereo in doubt) [listing 2 of 2 here] were, in that order, 750 nM, 750 nM and 5.4 µM.
As for `CC(=O)N[C@@H](Cc1c[nH]cn1)C(=O)N[C@@H](Cc1ccccc1)C(=O)N[C@@H](CCCN=C(N)N)C(=O)N[C@H](Cc1ccccc1)C(N)=O`, a half-maximal effect in experiment [1] (EC50) was put at 27 µM.
On to `CC(=O)N[C@@H](Cc1cnc[nH]1)C(=O)N[C@H](Cc1ccccc1)C(=O)N[C@@H](CCCN=C(N)N)C(=O)N1Cc2ccccc2C[C@H]1C(N)=O`, for which the EC50 in experiment [1] amounted to 23.2 µM; in experiment [2], 43 nM; in experiment [3], 700 nM; in experiment [4], 8.5 µM.
For the compound `CC(=O)N[C@@H](Cc1cnc[nH]1)C(=O)NC(Cc1ccccc1)C(=O)N[C@@H](CCCNC(=N)N)C(=O)N[C@H](Cc1ccncc1)C(N)=O` (stereo in doubt) [listing 1 of 2 here], the EC50 stood at 2240 nM in experiment [2], 14500 nM in experiment [3] and 30 µM in experiment [4].
As to `CC(=O)N[C@@H](Cc1cnc[nH]1)C(=O)N[C@H](Cc1ccccc1)C(=O)N[C@@H](CCCN=C(N)N)C(=O)NC(Cc1c[nH]c2ccccc12)C(N)=O` (stereo in doubt), the EC50 in experiment [3] stood at 35.3 nM; in experiment [4], 0.24 µM.
`CC(=O)N[C@@H](Cc1c[nH]cn1)C(=O)N[C@H](Cc1ccccc1)C(=O)N[C@@H](CCCN=C(N)N)C(=O)N[C@@]1(C(N)=O)CCc2ccccc2C1` (stereo in doubt; 21): the EC50 in experiment [1] was found to be 33.5 µM; in experiment [2] it was 680 nM; in experiment [3], 960 nM; in experiment [4], 8.8 µM.
The compound `CC(=O)N[C@@H](Cc1cnc[nH]1)C(=O)NC(Cc1ccccc1)C(=O)N[C@@H](CCCNC(=N)N)C(=O)NC(C(N)=O)C(c1ccccc1)c1ccccc1` (stereo in doubt) [listing 1 of 2 here] showed an EC50 in experiment [1] of 16 µM.
As for `CC(=O)N[C@@H](Cc1c[nH]cn1)C(=O)NC(Cc1ccccc1)C(=O)N[C@@H](CCCN=C(N)N)C(=O)N[C@H](Cc1ccc2ccccc2c1)C(N)=O` (stereo in doubt) [listing 2 of 2 here], the EC50 in experiment [2] was 17.9 nM; in experiment [3], 4.86 nM; in experiment [4], 0.0158 µM.
The like results for `CC(=O)N[C@@H](Cc1cnc[nH]1)C(=O)NC(Cc1ccccc1)C(=O)N[C@@H](CCCNC(=N)N)C(=O)N[C@H](Cc1csc2ccccc12)C(N)=O` (stereo in doubt) [listing 2 of 2 here] were, in that order, 79.9 nM, 47.7 nM and 0.143 µM.
For `CC(=O)N[C@@H](Cc1c[nH]cn1)C(=O)NC(Cc1ccccc1)C(=O)N[C@@H](CCCN=C(N)N)C(=O)N[C@H](Cc1ccc(-c2ccccc2)cc1)C(N)=O` (stereo in doubt) [listing 1 of 2 here], the EC50 stood at 51.9 nM in experiment [2], 100 nM in experiment [3] and 2.7 µM in experiment [4].
`CC(=O)N[C@@H](Cc1cnc[nH]1)C(=O)NC(Cc1ccccc1)C(=O)N[C@@H](CCCNC(=N)N)C(=O)N[C@H](Cc1cccs1)C(N)=O` (stereo in doubt) [listing 2 of 2 here]: the EC50 stood at 2780 nM in experiment [2], 850 nM in experiment [3] and 8.12 µM in experiment [4].
Take `CC(=O)N[C@@H](Cc1c[nH]cn1)C(=O)N[C@H](Cc1ccccc1)C(=O)N[C@@H](CCCN=C(N)N)C(=O)N[C@@H](C)C(N)=O`: the EC50 in experiment [1] was greater than 100 µM; in experiment [2], 4400 nM; in experiment [3] it was 38400 nM; in experiment [4] it was 43.7 µM.
In experiment [1], `CC(=O)N[C@@H](Cc1cnc[nH]1)C(=O)NC(Cc1ccccc1)C(=O)N[C@@H](CCCNC(=N)N)C(=O)N[C@H](Cc1ccncc1)C(N)=O` (stereo in doubt) [listing 2 of 2 here] yielded an EC50 greater than 100 µM.
`CC(=O)N[C@@H](Cc1c[nH]cn1)C(=O)NC(Cc1ccccc1)C(=O)N[C@@H](CCCN=C(N)N)C(=O)NC(Cc1ccccc1)C(N)=O` (stereo in doubt) [listing 2 of 2 here]: the EC50 in experiment [2] amounted to 2500 nM; in experiment [3], 470 nM; in experiment [4] it was 1 µM.
The like results for `CC(=O)N[C@@H](Cc1cnc[nH]1)C(=O)NC(Cc1ccccc1)C(=O)N[C@@H](CCCNC(=N)N)C(=O)NC(C(N)=O)C(c1ccccc1)c1ccccc1` (stereo in doubt) [listing 2 of 2 here] were, in that order, 680 nM, 7440 nM and 7.8 µM.
On to `CC(=O)N[C@@H](Cc1c[nH]cn1)C(=O)NC(Cc1ccccc1)C(=O)N[C@@H](CCCN=C(N)N)C(=O)N[C@H](Cc1ccc(-c2ccccc2)cc1)C(N)=O` (stereo in doubt) [listing 2 of 2 here], for which the half-maximal effective concentration (EC50) in experiment [1] is 13.4 µM.
As for `CC(=O)N[C@@H](Cc1cnc[nH]1)C(=O)NC(Cc1ccccc1)C(=O)N[C@@H](CCCNC(=N)N)C(=O)NC(Cc1c[nH]c2ccccc12)C(N)=O` (stereo in doubt), the EC50 was determined as 3.96 nM in experiment [3] (hek293) and 0.0172 µM in experiment [4] (hek293).
